Results: patent US6828322B2, “Triazolo-pyridazine derivatives as ligands for GABA receptors” (Merck Sharp & Dohme Ltd., priority 1998, dated 2004)

Compound | melting point [°C]
Cn1ncnc1COc1nn2c(-c3ccc(F)cc3F)nnc2cc1C1(C)CCCCC1 [Example 12, 3-(2,4-Difluorophenyl)-7-(1-methylcyclohexyl)-6-(2-methyl-2H-1,2,4-triazol-3-ylmethoxy)-1,2,4-triazolo[4,3-b]pyridazine] | 196
Cn1cnc(COc2nn3c(-c4ccc(F)cc4F)nnc3cc2C2(C)CCCCC2)n1 [Example 13, 3-(2,4-Difluorophenyl)-7-(1-methylcyclohexyl)-6-(1-methyl-1H-1,2,4-triazol-3-ylmethoxy)-1,2,4-triazolo[4,3-b]pyridazine] | 156
Cn1ccc(COc2nn3c(-c4ccccc4F)nnc3cc2C2CCC2)n1 [Example 14, 7-Cyclobutyl-3-(2-fluorophenyl)-6-(1-methyl-1H-pyrazol-3-ylmethoxy)-1,2,4-triazolo[4,3-b]pyridazine] | 184 to 186
Cc1cc(COc2nn3c(-c4ccccc4F)nnc3cc2C2CCC2)no1 [Example 15, 7-Cyclobutyl-3-(2-fluorophenyl)-6-(5-methylisoxazol-3-ylmethoxy)-1,2,4-triazolo[4,3-b]pyridazine] | 150
Cn1ccnc1COc1nn2c(-c3ccccc3F)nnc2cc1C1CCC1 [Example 16, 7-Cyclobutyl-3-(2-fluorophenyl)-6-(1-methyl-1H-Imidazol-2-ylmethoxy)-1,2,4-triazolo[4,3-b]pyridazine] | 173
Cn1cnnc1COc1nn2c(-c3ccccc3F)nnc2cc1C1CCC1 [Example 17, 7-Cyclobutyl-3-(2-fluorophenyl)-6-(4-methyl-4H-1,2,4-triazol-3-ylmethoxy)-1,2,4-triazolo[4,3-b]pyridazine] | 228
Cn1cnc(COc2nn3c(-c4ccccc4F)nnc3cc2C2CCC2)c1 [Example 24, 7-Cyclobutyl-3-(2-fluorophenyl)-6-(1-methyl-1H-imidazol-4-ylmethoxy)-1,2,4triazolo[4,3-b]pyridazine] | 176
Cn1ncnc1COc1nn2c(-c3ccccc3F)nnc2cc1C1(F)CCC1 [Example 25, 7-(1-Fluorocyclobutyl)-3-(2-fluorophenyl)-6-(2-methyl-2H-1,2,4-triazol-3-ylmethoxy)-1,2,4-triazolo[4,3-b]pyridazine] | 154 to 162
Cn1nccc1COc1nn2c(-c3ccccc3F)nnc2cc1C1CCC1 [Example 26, 7-Cyclobutyl-3-(2-fluorophenyl)-6-(2-methyl-2H-pyrazol-3-ylmethoxy)-1,2,4-triazolo[4,3-b]pyridazine] | 184 to 186
Cn1ncnc1COc1nn2c(-c3ccccc3F)nnc2cc1CC1CCCC1 [Example 30, 7-Cyclopentylmethyl-3-(2-fluorophenyl)-6-(2-methyl-2H-1,2,4-triazol-3-ylmethoxy)-1,2,4-triazolo[4,3-b]pyridazine] | 135 to 137
Cn1ncnc1COc1nn2c(-c3ccccc3F)nnc2cc1C1(C)CCOCC1 [Example 36, 3-(2-Fluorophenyl)-7-(4-methyltetrahydropyran-4-yl)-6-(2-methyl-2H-1,2,4-triazol-3-ylmethoxy)-1,2,4-triazolo [4,3-b]pyridazine] | 191
Cn1cnc(COc2nn3c(-c4ccccc4F)nnc3cc2C2(C)CCOCC2)n1 [Example 37, 3-(2-Fluorophenyl)-7-(4-methyltetrahydropyran-4-yl)-6-(1-methyl-1H-1,2,4-triazol-3-ylmethoxy)-1,2,4-triazolo [4,3-b]pyridazine] | 154
Cn1cnc(COc2nn3c(-c4ccccc4F)nnc3cc2C2(C)CCC(F)(F)CC2)n1 [Example 40, 7-(4,4-Difluoro-1-methylcyclohexyl)-3-(2-fluorophenyl)-6-(1-methyl-1H-1,2,4-triazol-3-ylmethoxy)-1,2,4-triazolo [4,3-b]pyridazine] | 193
Cn1ncnc1COc1nn2c(-c3ccccc3F)nnc2cc1C1CCCO1 (stereo not drawn) [Example 43, 3-(2-Fluorophenyl)-6-(2-methyl-2H-1,2,4-triazol-3-ylmethoxy)-7-(tetrahydrofur-2-yl)-1,2,4-triazolo[4,3-b]pyridazine] | 136 to 139

Continued, values first:

melting point [°C] | Compound
189 to 190 | Cn1ncnc1COc1nn2c(-c3ccccc3F)nnc2cc1-c1cccs1 (hydrate or solvate) [Example 18, 3-(2-Fluorophenyl)-6-(2-methyl-2H-1,2,4-triazol-3-ylmethoxy)-7-(thien-2-yl)-1,2,4-triazolo[4,3-b]pyridazine]
209 to 212 | Cn1ncnc1COc1nn2c(-c3ccc(F)cc3F)nnc2cc1-c1cccs1 [Example 19, 3-(2,4-Difluorophenyl)-6-(2-methyl-2H-1,2,4-triazol-3-ylmethoxy)-7-(thien-2-yl)-1,2,4-triazolo[4,3-b]pyridazine]
134 to 136 | CC(C)Cc1cc2nnc(-c3ccccc3F)n2nc1OCc1ncnn1C [Example 28, 3-(2-Fluorophenyl)-7-(2-methylpropyl)-6-(2-methyl-2H-1,2,4-triazol-3-ylmethoxy)-1,2,4-triazolo[4,3-b]pyridazine]
103 to 105 | CC(C)CCc1cc2nnc(-c3ccccc3F)n2nc1OCc1ncnn1C [Example 29, 3-(2-Fluorophenyl)-7-(3-methylbutyl)-6-(2-methyl-2H-1,2,4-triazol-3-ylmethoxy)-1,2,4-triazolo[4,3-b]pyridazine]
123 to 126 | Cn1ncnc1COc1nn2c(-c3ccccc3F)nnc2cc1C(F)(F)F [Example 35, 3-(2-Fluorophenyl)-6-(2-methyl-2H-1,2,4-triazol-3-ylmethoxy)-7-trifluoromethyl-1,2,4-triazolo[4,3-b]pyridazine]
178 | Cn1ncnc1COc1nn2c(-c3ccccc3F)nnc2cc1C1CC(F)(F)C1 [Example 42, 7-(3,3-Difluorocyclobutyl)-3-(2-fluorophenyl)-6-(2-methyl-2H-1,2,4-triazol-3-ylmethoxy)-1,2,4-triazolo[4,3-b]pyridazine]
204 to 206 | Cn1ncnc1COc1nn2c(-c3ccccc3F)nnc2cc1-c1cccc(F)c1 [Example 44, 7-(3-Fluorophenyl)-3-(2-fluorophenyl)-6-(2-methyl-2H-1,2,4-triazol-3-ylmethoxy)-1,2,4-triazolo[4,3-b]pyridazine]
